Results from patent publication US5162316A, “Pyrimido[4,5-d]pyrimidine derivatives for use as bronchodilators” (Smith Kline & French Laboratories Limited, priority 1988, dated 1992).

How the values were obtained:
[1] = tested on: ovalbumen-induced bronchoconstrictor response; assay: Anti-allergic activity: ovalbumen-induced bronchoconstriction in sensitised guinea-pigs; assay type: in vivo, guinea-pig (Duncan Hartley, male); details: ovalbumen 1 mg/kg i.v., n=6
Method: Male Duncan Hartley guinea-pigs (250-300 g) were sensitised to ovalbumen by i.p. injection of 2 ml of 50mg.ml^-1 i.p. and 0.2 ml s.c. Three weeks later they were anaesthetised with 60mg.kg^-1 sodium pentabarbitone. The trachea was cannulated and the animal respired at a rate of 40 breaths per minute and at an initial tracheal inflation pressure of 16 mmHg. Tracheal inflation pressure was measured by a transducer connected to a side arm of the respiration circuit. The carotid artery was cannulated for the measurement of blood pressure and the signal was used to trigger an instantaneous rate meter. A jugular vein was cannulated for the administration of drug and allergen. After surgery the animals were allowed to stabilise and the drug was administered i.v. as a bolus. Following this, ovalbumen 1 mg.kg^-1 was injected i.v. as the antigen challenge either 2, 15 or 30 minutes following drug treatment and the peak bronchoconstrictor response recorded. For the control group ovalbumen only was given. One ovalbumen challenge per guinea-pig was used and n=6 for each time point. The percentage increase in tracheal inflation pressure was calculated. The following results indicating an anti-allergic activity were obtained.

[2] = tested on: U46619-induced bronchoconstriction; assay: Bronchodilatation in vivo: inhibition of U46619-induced bronchoconstriction in anaesthetised guinea-pigs (Konzett-Rossler); parameters: species or system guinea-pig (Dunkin Hartley, male); details: for ED50: Cavia porcellus, iv, i.v. bolus, anaesthetised guinea-pig, range for the group of listed Examples, read-out: BD50 (dose of compound required to reduce the U46619-induced bronchoconstriction by 50%)
Method: Male guinea-pigs of the Dunkin Hartley strain (500-600g) were anaesthetised with Sagatal (pentobarbital sodium) (60 mg/kg). Airway resistance was measured using a modification of the classical Konzett-Rossler technique (J. Pharm. Methods, 13, 309- 315, 1985). […] The compound under test was administered by i.v. bolus injection, and the subsequent peak inhibition of bronchoconstriction recorded.
The dose of compound required to reduce the U46619-induced bronchoconstriction by 50% is given as the BD50. The compounds of Examples 1, 7, 8, 12, 13, 14, 18, 20, 21, 22 and 24 had BD50 values in the range 0.48-3.85 μmol/kg.

[3] = tested on: [H][C@@]12COP(=O)(O)O[C@@]1([H])[C@@H](O)[C@H](n1cnc3c(=O)[nH]c(N)nc31)O2; assay: purified protein, by the assay type; details: other: substrate of the isolated PDE activity
[4] = molecular target: T1, calmodulin insensitive cyclic GMP phosphodiesterase (Sus scrofa, UniProt A0A287B475); assay: Kinetic properties of the isolated PDE activity; assay type: biochemical, pig; details: at 1 μM substrate
T1 construct: kept on ice until the pulmonary arteries or aortas could be dissected and excess fat removed; from tissue; host or cells: pig pulmonary arteries or aortas; soluble fraction purified over DEAE-Sepharose, calmodulin-agarose and cibacron blue-agarose
Method: Eight pig hearts/lungs were collected from the abattoir and kept on ice until the pulmonary arteries or aortas could be dissected and excess fat removed. 120 g of tissue was dissected. […] On the day of homogenisation, tissue was cooled with liquid nitrogen and broken into small pieces by striking with a hammer. […] Phenylmethanesulphonylfluoride (PMSF) was added to a final concentration of 50 μM just prior to homogenisation. The homogenate was then centrifuged for 20 minutes at 30,000 g. Supernatant was filtered firstly through glass wool and then a 0.45 μm filter. […] The column was washed with 150 mls of homogenisation buffer and PDE activities eluted with 150 ml of homogenisation buffer containing 100 mM sodium acetate.
Fractions 2 and 3 were pooled and BIS-TRIS, MgCl2, CaCl2 added to final concentrations of 50 mM, 7 mM and 5 mM respectively. PMSF, leupeptin, antipain and pepstatin A were also added at the concentrations described above for these components. The pH of this pooled sample was corrected to 6.9.
The first column in the tandem was a 5 ml calmodulin-agarose column (Sigma) and the second a 1.5 ml cibacron blue 3GA-agarose column (Sigma). Both columns were pre-equilibrated with 50 mM BIS-TRIS, 5 mM MgCl2, 5 mM CaCl2, 5 mM benzamidine, 2 mM dithiothreitol pH 6.9. Following application of the sample the columns were washed with 20 ml of equilibration buffer. […]

hindquarter blood flow = assay: Vasodilatation in vivo: hindquarter blood flow in anaesthetised rats; parameters: species or system rat (Wistar, male); details: bolus i.v., 50 μmol/kg, rat
Method: Male Wistar rats (300 g) were anaesthetised with a sodium 5-ethyl-5-(1methylpropyl)-2-thiobarbiturate/sodium pentobarbitone mixture i.p. (62.5 and 22.5 mg/kg respectively). The trachea was cannulated and the rats breathed spontaneously air enriched with O2 (5 ml/min). Blood pressure was recorded from a carotid artery and a jugular vein was cannulated for the administration of compounds. The temperature of the animal was maintained at 37° C. by the use of an electric blanket. […] The perfusion circuit was primed with 5% bovine serum albumin dissolved in 0.9% sodium chloride solution, pH adjusted to 7.4. Initially the pump rate was set between 10 and 15 ml/min to match the hind quarter perfusion pressure to that of the systemic circulation. Once set, the pressure remained unaltered for the rest of the experiment. A change in the speed of the pump (equivalent to hindquarter blood flow) was used to assess the changes in hindquarter vascular resistance.

CCCOc1ccccc1-c1nc2nc(NC)ncc2c(=O)[nH]1 [Example 8, 7-Methylamino-4-oxo-2-(2-propoxyphenyl)-3,4-dihydropyrimido[4.5-d]pyrimidine]
% Inhibition of Control Bronchoconstrictor Response 30 min after drug administration ([1]; dose 6.0 μmol/kg i.v.): 23%
ED50 [2]: 0.48 to 3.85 µmol/kg

CCCOc1ccccc1-c1nc2nc(NCCCO)ncc2c(=O)[nH]1 [Example 21, 7-(3-Hydroxypropylamino)-4-oxo-2-(2-propoxyphenyl)-3,4-dihydropyrimido[4.5 d]pyrimidine]
ED50 [2]: 0.48 to 3.85 µmol/kg

CCCOc1ccccc1-c1nc2nc(NCCO)ncc2c(=O)[nH]1 [Example 13]
% Inhibition of Control Bronchoconstrictor Response 30 min after drug administration ([1]; dose 4.8 μmol/kg i.v.): 21%
ED50 [2]: 0.48 to 3.85 µmol/kg

CCCOc1ccccc1-c1nc2nc(NC3CC3)ncc2c(=O)[nH]1 [Example 18, 7-Cyclopropylamino-4-oxo-2-(2-propoxyphenyl)-3,4-dihydropyrimido[4,5-d]pyrimidine]
% Inhibition of Control Bronchoconstrictor Response 30 min after drug administration ([1]; dose 22.6 μmol/kg i.v.): 44%
ED50 [2]: 0.48 to 3.85 µmol/kg

CCCOc1ccccc1-c1nc2nc(NCC)ncc2c(=O)[nH]1 [Example 12, 7-Ethylamino-4-oxo-2-(2-propoxyphenyl)-3,4-dihydropyrimido[4,5-d]pyrimidine]
% Inhibition of Control Bronchoconstrictor Response 30 min after drug administration ([1]; dose 18.7 μmol/kg i.v.): 24%
ED50 [2]: 0.48 to 3.85 µmol/kg

calmodulin insensitive cyclic GMP phosphodiesterase (Sus scrofa)
Km [3]: 1.3 µM

CCCCCC(O)C=CC1C2CC(CO2)C1CC=CCCCC(=O)O (centres unmarked) [Example U46619, 9,11-methaneoepoxy-PGH2, reference compound]
increase from basal airway resistance (steady state of bronchoconstriction) ([2]; U46619 infused i.v. at 2.5 nmol/min): approximately 120%

CCCOc1ccccc1-c1nc2nc(N)ncc2c(=O)[nH]1 [Example 7, 7 Amino 4-oxo-2-(2-propoxyphenyl)-3,4-dihydropyrimido[4.5-d]pyrimidine]
ED50 [2]: 0.48 to 3.85 µmol/kg

Nc1nc2c(ncn2[C@@H]2O[C@@H]3COP(=O)(O)O[C@H]3[C@H]2O)c(=O)[nH]1 [cGMP]
Ratio of cGMP/cAMP hydrolysis [4]: 30

CCCOc1ccccc1-c1nc2nc(NCC(C)O)ncc2c(=O)[nH]1 (centres unmarked) [Example 24, 7-(2-Hydroxypropylamino)-4-oxo-2-(2-propoxyphenyl)-3,4-dihydropyrimido[4,5-d]pyrimidine]
% Inhibition of Control Bronchoconstrictor Response 30 min after drug administration ([1]; dose 6.5 μmol/kg i.v.): 24%
ED50 [2]: 0.48 to 3.85 µmol/kg

CCCNc1ncc2c(=O)[nH]c(-c3ccccc3OCCC)nc2n1 [Example 20, 7-Propylamino-4-oxo-2-(2-propoxyphenyl)-3,4-dihydropyrimido[4,5-d]pyrimidine]
ED50 [2]: 0.48 to 3.85 µmol/kg

CCCOc1ccccc1-c1nc2nc(SC)ncc2c(=O)[nH]1 [Example 1, 7-Methylthio-4-oxo-2-(2-propoxyphenyl)-3,4-dihydropyrimido-[4.5-d]pyrimidin]
ED50 [2]: 0.48 to 3.85 µmol/kg
increase in hindquarter blood flow (hindquarter blood flow): 43.7%

CCCOc1ccccc1-c1nc2nc(CC)ncc2c(=O)[nH]1 [Example 14, 7-Ethyl-4-oxo-2-(2-propoxyphenyl)-3,4-dihydropyrimido[4,5-d]pyrimidine]
ED50 [2]: 0.48 to 3.85 µmol/kg

CCCOc1ccccc1-c1nc2nc(NCCOC)ncc2c(=O)[nH]1 [Example 22]
ED50 [2]: 0.48 to 3.85 µmol/kg
